Test results reported in patent USRE38425E1, “Semicarbazones having CNS activity and pharmaceutical preparations containing same” (University of Saskatchewan Technologies, Inc., priority 1995, dated 2004).
Values joined by “and” are separate entries in the source; they are usually repeats but may differ in a detail not shown here. Equal values may be shown once. Read-outs that look alike come from different tables or passages of the source.

Experiments:
mice [1] = assay: MES screen after intraperitoneal injection in mice; type: in vivo; conditions: time t (h) per compound as in the table; for ED50: Mus musculus, ip
mice [2] = conditions: intraperitoneal injection in mice; time t (h) per compound as in the table
mice [3] = conditions: for neurotoxicity screen TD50: intraperitoneal injection in mice, time t (h) per compound as in the table
rats [4] = assay: MES screen after oral administration to rats; conditions: for ED50: Rattus norvegicus, po
rats [5] = assay: neurotoxicity screen after oral administration to rats; conditions: oral administration to rats; time t (h) per compound as in the table
epileptic chicken = epileptic chicken model (intermittent photic stimulation); type: in vivo; conditions: convulsions induced by intermittent photic stimulation
Source text: Two series of compounds were examined with the aim of observing whether oxygen or sulfur is a preferable spacer atom between the two aryl rings and also to compare the ED50 figures with those obtained in the rat oral and mouse intraperitoneal screens.

kindled rat = kindled rat test (corneal kindled rat screen); type: in vivo, rats; conditions: Rattus norvegicus; read-out: ED50 (dose required to reduce seizures from stage 5 to stage 3 or less)
Source text: Particularly preferred compounds according to the present invention are 4-(4′-fluorophenoxy)benzaldehyde semicarbazone and 4-(thiophenoxy)benzaldehyde semicarbazone. […] Incidentally, the kindled rat screen is described by R. J. Racine in “Modification of Seizure Activity by Electrical Stimulation. II. Motor Seizure”, Electroencephalogr.Clin.Neurophysiol., 1972, 32, 281-294, and by G. Skeen et al. In “Development of Kindled Seizures Following Electrical Stimulation via the Cornea”, Soc.Neurosci., 1990, 16(1), 307; the disclosures of which are incorporated herein by reference.
The kindled rat test was undertaken by reported procedures (as indicated above). Compound 4b was administered orally and the animals challenged with electrical stimuli 2h later. The ED50 is the dose required to reduce seizures from stage 5 to stage 3 or less and these stages are described as follows namely stage 1 is mouth and facial clonus, stage 2 is stage 1 plus head nodding, stage 3 is stage 2 plus forelimb clonus, stage 4 is stage 3 plus rearing and stage 5 is stage 4 plus repeated rearing and falling.

in vivo = conditions: rat, po
Procedure: (§1) Initially doses of 50 mg/kg of the semicarbazones were administered.

rats [6] = conditions: rat, in vivo, po
Procedure: as §1

[7] = intraperitoneal injection in mice
[8] = oral administration to rats, dose 12.5 mg/kg, 1 h
[9] = oral administration to rats, dose 12.5 mg/kg, 2 h
[10] = oral administration to rats, dose 12.5 mg/kg, 4 h
[11] = oral administration to rats, time t (h) per compound as in the table
[12] = oral administration to rats, dose 12.5 mg/kg, 0.5 h
[13] = oral administration to rats, dose 50 mg/kg, 0.5 h
[14] = oral administration to rats, dose 50 mg/kg, 1 h
[15] = oral administration to rats, dose 50 mg/kg, 2 h
[16] = oral administration to rats, dose 50 mg/kg, 4 h
[17] = oral administration to rats, dose 12.5 mg/kg, 0.25 h

Row | SMILES | MES screen ED50 (mice [1]; [7]) | acPTZ screen ED50 (mice [2]) | neurotoxicity screen TD50 (mice [3]) | neurotoxicity screen TD50 (rats [5]) | MES screen: number of rats out of 4 which were protected (rats [4]; [12]) | MES screen: number of rats out of 4 which were protected (rats [4]; [8]) | MES screen: number of rats out of 4 which were protected (rats [4]; [9]) | MES screen: number of rats out of 4 which were protected (rats [4]; [10]) | ED50 in the epileptic chicken model (epileptic chicken) | other results
1 | CC(C)(C)c1ccc(Oc2ccc(C=NNC(N)=O)cc2)cc1 [Compound 5s] | 8.87 mg/kg | >150.00 mg/kg | 105.92 mg/kg | >500 mg/kg | – | – | – | – | – | MES screen 1 h: number of rats out of 4 which were protected (rats [4]; [8]): 4; MES screen 2 h: number of rats out of 4 which were protected (rats [4]; [9]): 4; MES screen 4 h: number of rats out of 4 which were protected (rats [4]; [10]): 4; MES screen ED50 (rats [4]; [11]): 1.68 mg/kg
2 | CC(=NNC(N)=O)c1ccc(Oc2ccc(F)cc2)cc1 [Compound 13b] | 11.63 mg/kg | >80 mg/kg | 60.74 mg/kg | 108.77 mg/kg | 4 | 4 | 4 | 4 | – | MES screen ED50 (rats [4]; [11]): 3.37 mg/kg
3 | NC(=O)NN=Cc1ccc(Sc2ccccc2)cc1 [Compound 15a] | 15.62 mg/kg | >46 mg/kg | 181.00 mg/kg | >496 mg/kg | – | – | – | – | 2.5 mg/kg | MES screen: number of rats out of 4 which were protected (rats [4]; [13]): 4; MES screen: number of rats out of 4 which were protected (rats [4]; [14]): 4; MES screen: number of rats out of 4 which were protected (rats [4]; [15]): 4; MES screen: number of rats out of 4 which were protected (rats [4]; [16]): 4
4 | NC(=O)NN=Cc1ccc(Sc2ccc(F)cc2)cc1 [Compound 16a] | 12.37 mg/kg | >120 mg/kg | 88.00 mg/kg | 183.05 mg/kg | 3 | 4 | 4 | 4 | 1.5 mg/kg | MES screen: number of rats out of 4 which were protected (rats [4]; [17]): 1
5 | NC(=O)NN=Cc1ccc(Sc2ccc(Cl)cc2)cc1 [Compound 16b] | 16.22 mg/kg | >120 mg/kg | 53.18 mg/kg | – | – | – | – | – | 1.0 mg/kg | MES screen: number of rats out of 4 which were protected (rats [4]; oral administration to rats, dose 50 mg/kg, 0.25 h): 1; MES screen: number of rats out of 4 which were protected (rats [4]; [13]): 4; MES screen: number of rats out of 4 which were protected (rats [4]; [14]): 4; MES screen: number of rats out of 4 which were protected (rats [4]; [15]): 4; MES screen: number of rats out of 4 which were protected (rats [4]; [16]): 4
6 | NC(=O)NN=Cc1ccc(Sc2ccc(Br)cc2)cc1 [Compound 16c] | 24.37 mg/kg | >200 mg/kg | 122.57 mg/kg | – | 1 | 3 | 4 | 4 | 1.5 mg/kg | MES screen: number of rats out of 4 which were protected (rats [4]; [17]): 0
7 | O=C1NC(=O)C(c2ccccc2)(c2ccccc2)N1 [Phenytoin, reference compound] | 6.48 mg/kg | >50 mg/kg | 41.23 mg/kg and 42.8 mg/kg | – | – | – | – | – | – | ED50 (mice [1]; intraperitoneal injection in mice, read-out: MES screen ED50): 6.32 mg/kg; ED50 (kindled rat): > 100 mg/kg; toxicity screen 0.5 h: minimum dose whereby bioactivity was demonstrated in half or more of the mice (mice [3]; mouse, in vivo, 0.5 h): 100 mg/kg; toxicity screen: minimum dose whereby bioactivity was demonstrated in half or more of the mice (mice [3]; mouse, in vivo, 0.5 h): 100 mg/kg; toxicity screen 4 h: minimum dose whereby bioactivity was demonstrated in half or more of the mice (mice [3]; mouse, in vivo, 4 h): 100 mg/kg; toxicity screen: minimum dose whereby bioactivity was demonstrated in half or more of the mice (mice [3]; mouse, in vivo, 4 h): 100 mg/kg; TD50 (in vivo): > 500 mg/kg; ED50 (rats [4]; read-out: MES screen ED50 (mg/kg)): 23.2 mg/kg
8 | CCCC(CCC)C(=O)O [Valproic acid, reference compound] | – | 209 mg/kg | – | – | – | – | – | – | – | ED50 (mice [1]; read-out: MES screen ED50 (mg/kg), intraperitoneal injection in mice): 287 mg/kg; ED50 (kindled rat): 117 mg/kg; neurotoxicity screen TD50 (rats [6]): 859 mg/kg; ED50 (rats [4]; read-out: MES screen ED50 (mg/kg), oral administration to rats, time t (h) per compound as in the table): 395 mg/kg
